± gives the expanded uncertainty stated by the source.
Test: refractive index (Na D-line) (dimensionless)
Settings: 298.15 K; 101.33 kPa; Liquid; Standard Abbe refractometry

| Compound | refractive index |
| --- | --- |
| CCCCCC [hexane] | 1.37226 ± 0.00072 |
| Cc1ccc(C)cc1 [1,4-dimethylbenzene] | 1.49321 ± 0.00072 |
